Literature values as cited in paper PMC4460250, “Systems Pharmacology Dissecting Holistic Medicine for Treatment of Complex Diseases: An Example Using Cardiocerebrovascular Diseases Treated by TCM” (Evidence-based Complementary and Alternative Medicine : eCAM, 2015).

settings: in vivo; cited from earlier work

In order of falling “HIA(Human Intestinal Absorption)” value:
1. COc1cc(N)c(Cl)cc1C(=O)NC1CCN(CCCOc2ccc(F)cc2)CC1OC (stereo not drawn) [Cisapride]  1
2. Cc1cn([C@H]2C[C@H](N=[N+]=[N-])[C@@H](CO)O2)c(=O)[nH]c1=O [Zidovudine]  1
3. COc1cc2c(cc1OC)C1CC(=O)C(CC(C)C)CN1CC2 (stereo not drawn) [Tetrabenazine]  1
4. NNc1nncc2ccccc12 [Hydralazine]  1
5. CN1CCN(CCCCN2C(=O)CN(/N=C/c3ccc(-c4ccc(Cl)cc4)o3)C2=O)CC1 [Azimilide]  1
6. CC(C)(C)NC[C@H](O)COc1cccc2c1CCCC2=O [Levobunolol]  1
7. CO/N=C(\C(=O)N[C@@H]1C(=O)N2C(C(=O)O)=C(COC(N)=O)CS[C@H]12)c1ccco1 [Cefuroxime]  1
8. CNCCCN1c2ccccc2CCc2ccccc21 [Desipramine]  1
9. C#C[C@]1(OC(C)=O)CC[C@H]2[C@@H]3CCC4=CC(=NO)CC[C@@H]4[C@H]3CC[C@@]21CC (mixture of isomers) [Norgestimate]  1
10. O=C(Oc1ccccc1C(=O)O)c1ccccc1O [Salsalate]  1
11. NS(=O)(=O)c1cc2c(cc1C(F)(F)F)NC(Cc1ccccc1)NS2(=O)=O (stereo not drawn) [Bendroflumethiazide]  1
12. CNCCC=C1c2ccccc2CCc2ccccc21 [Nortriptyline]  1
13. COc1ccc(Cl)cc1C(=O)NCCc1ccc(S(=O)(=O)NC(=O)NC2CCCCC2)cc1 [Glyburide]  1
14. CC(C)COCC(CN(Cc1ccccc1)c1ccccc1)N1CCCC1 (stereo not drawn) [Bepridil]  1
15. Cc1ccc(C)c(OCCCC(C)(C)C(=O)O)c1 [Gemfibrozil]  1
16. CN1CCCC(n2nc(Cc3ccc(Cl)cc3)c3ccccc3c2=O)CC1 (stereo not drawn) [Azelastine]  1
17. NC(=O)c1cnccn1 [Pyrazinamide]  1
18. CC(C(=O)O)c1ccc(N2Cc3ccccc3C2=O)cc1 (stereo not drawn) [Indoprofen]  1
19. CCCCC1=NC2(CCCC2)C(=O)N1Cc1ccc(-c2ccccc2-c2nnn[nH]2)cc1 [Irbesartan]  1
20. Cc1cc(NC(=O)C2=C(O)c3ccccc3S(=O)(=O)N2C)no1 [Isoxicam]  1
21. N#Cc1ccc(C(c2ccc(C#N)cc2)n2cncn2)cc1 [Letrozole]  1
22. Fc1ccc([C@@H]2CCNC[C@H]2COc2ccc3c(c2)OCO3)cc1 [Paroxetine]  1
23. CC(=O)Nc1ccccc1 [Acetanilide]  1
24. Cc1ccc(C(=O)c2ccc(CC(=O)O)n2C)cc1 [Tolmetin]  0.99
25. O=C(O)CCc1nc(-c2ccccc2)c(-c2ccccc2)o1 [Oxaprozin]  0.98
26. Cc1cccc(Nc2ccncc2S(=O)(=O)NC(=O)NC(C)C)c1 [Torasemide]  0.96
27. CCCCCOC(=O)Nc1nc(=O)n([C@@H]2O[C@H](C)[C@@H](O)[C@H]2O)cc1F [Capecitabine]  0.96
28. Clc1cccc(Cl)c1N=C1NCCN1 [Clonidine]  0.95
29. Nc1c2c(nc3ccccc13)CCCC2 [Tacrine]  0.95
30. CC(=O)OCC(=O)[C@@]1(O)CC[C@H]2[C@@H]3CCC4=CC(=O)CC[C@]4(C)[C@@]3(F)[C@@H](O)C[C@@]21C [Fludrocortisone_acetate]  0.95
31. CC(CCc1ccccc1)NCC(O)c1ccc(O)c(C(N)=O)c1 (stereo not drawn) [Labetalol]  0.95
32. CCOC(=O)n1ccn(C)c1=S [Carbimazole]  0.95
33. CCOC(=O)c1ncn2c1CN(C)C(=O)c1cc(F)ccc1-2 [Flumazenil]  0.95
34. CCCc1nc2c(C)cc(-c3nc4ccccc4n3C)cc2n1Cc1ccc(-c2ccccc2C(=O)O)cc1 [Telmisartan]  0.9
35. CC1=C(/C=C/C(C)=C/C=C/C(C)=C\C(=O)O)C(C)(C)CCC1 [Isotretinoin]  0.9
36. O=C1NC(=O)C(c2ccccc2)(c2ccccc2)N1 [Phenytoin]  0.9
37. CN(C)CCc1c[nH]c2ccc(Cn3cncn3)cc12 [Rizatriptan]  0.9
38. CN1CCC(=C2c3ccccc3CCc3cccnc32)CC1 [Azatadine]  0.9
39. CCOC(=O)Nc1ccc2c(c1)N(C(=O)CCN1CCOCC1)c1ccccc1S2 [Moricizine]  0.88
40. O=C1NS(=O)(=O)c2ccccc21 [Saccharin]  0.88
41. COc1cc2nc(N3CCN(C(=O)c4ccco4)CC3)nc(N)c2cc1OC [Prazosin]  0.86
42. CC1(C)O[C@@H]2[C@@H](CO[C@@]3(COS(N)(=O)=O)OC(C)(C)O[C@@H]23)O1 [Topiramate]  0.86
43. [H]/N=C(\N/C(=N/[H])Nc1ccc(Cl)cc1)NC(C)C [Chlorguanide]  0.85
44. Oc1ncnc2[nH]ncc12 [Allopurinol]  0.8
45. Clc1ccccc1CN1CCc2sccc2C1 [Ticlopidine]  0.8
46. CSc1ccc(C(=O)c2[nH]c(=O)[nH]c2C)cc1 [Enoximone]  0.8
47. CC(=O)OCC(CCn1cnc2cnc(N)nc21)COC(C)=O [Famciclovir]  0.77
48. CCC1(c2ccccc2)C(=O)NCNC1=O [Primidone]  0.75
49. CCc1oc2ccccc2c1C(=O)c1cc(Br)c(O)c(Br)c1 [Benzbromarone]  0.73
50. N[C@@H]1CON=C1O [Cycloserine]  0.73
51. O=C1CN2Cc3c(ccc(Cl)c3Cl)N=C2N1 [Anagrelide]  0.7
52. O=C(O)c1cc(/N=N/c2ccc(S(=O)(=O)Nc3ccccn3)cc2)ccc1O [Sulfasalazine]  0.62
53. O=C1Cc2cc(CCN3CCN(c4nsc5ccccc45)CC3)c(Cl)cc2N1 [Ziprasidone]  0.6
54. CNC(=C[N+](=O)[O-])NCCSCc1ccc(CN(C)C)o1 [Ranitidine]  0.5
55. COCC1=C(C(=O)OC(C)OC(=O)OC(C)C)N2C(=O)[C@@H](NC(=O)/C(=N\OC)c3csc(N)n3)[C@H]2SC1 (stereo partly drawn) [Cefpodoxime_proxetil]  0.5
56. NC(=O)c1ncn([C@@H]2O[C@H](CO)[C@@H](O)[C@H]2O)n1 [Ribavirin]  0.33
57. NC(N)=Nc1nc(CSCCC(N)=NS(N)(=O)=O)cs1 [Famotidine]  0.28
58. CCC[C@@H]1C[C@@H](C(=O)N[C@@H]([C@H]2O[C@H](SC)[C@H](O)[C@@H](O)[C@H]2O)[C@@H](C)O)N(C)C1 [Lincomycin]  0.28
59. O=C(O)c1ccccc1C(=O)Nc1ccc(S(=O)(=O)Nc2nccs2)cc1 [Phthalylsulfathiazole]  0.05
60. NC[C@H]1O[C@H](O[C@H]2[C@H](O)[C@@H](O[C@H]3O[C@H](CO)[C@@H](O)[C@H](N)[C@H]3O)[C@H](N)C[C@@H]2N)[C@H](N)C[C@@H]1O [Tobramycin]  0.01
